In ChEMBL document CHEMBL4421732, “Use of small molecule inhibitors targeting EYA tyrosine phosphatase” (2017):
Calls of active or inactive are those of the source. No cut-off for these calls is given here.

Experiments:
Aorta [1] = assay: Inhibition of micro-vessel branching in […] mouse aorta cultured in collagen gels assessed as attenuation of branching at 7.5 uM by aortic ring sprouting assay; format: functional, tissue-based
Aorta [2] = assay: Inhibition of micro-vessel branching in […] mouse aorta cultured in collagen gels assessed as reduction in initial sprouting at 7.5 uM by aortic ring sprouting assay; format: functional, tissue-based
Aorta [3] = assay: Inhibition of micro-vessel branching in […] mouse aorta cultured in collagen gels assessed as reduction in aortic ring sprouting at 7.5 uM by aortic ring sprouting assay; format: functional, tissue-based
Danio rerio [4] = organism: Danio rerio; assay: Induction of vasculature defects in 20 hpf stage FLK1-GFP transgenic Zebrafish embryos measured at 24 hpf stage by fluorescence microscopy; format: functional, organism-based
HUVEC = assay: Inhibition of cell proliferation of HUVEC incubated for 3 days by WST8 dye based assay relative to control; format: functional; conditions: for inhibition: Homo sapiens
Danio rerio [5] = organism: Danio rerio; assay: Induction of general morphology changes in 20 hpf stage FLK1-GFP transgenic Zebrafish embryos measured at 24 hpf stage by fluorescence microscopy; format: functional, organism-based
[6] = molecular target: T1, Protein phosphatase EYA2 (Homo sapiens) (UniProt O00167); assay: Inhibition of EYA2 (unknown origin) stably transfected in human MCF10A cells assessed as inhibition of cell migration at 7.5 uM by transwell assay; format: cell-based
T1 sequence (whole entry): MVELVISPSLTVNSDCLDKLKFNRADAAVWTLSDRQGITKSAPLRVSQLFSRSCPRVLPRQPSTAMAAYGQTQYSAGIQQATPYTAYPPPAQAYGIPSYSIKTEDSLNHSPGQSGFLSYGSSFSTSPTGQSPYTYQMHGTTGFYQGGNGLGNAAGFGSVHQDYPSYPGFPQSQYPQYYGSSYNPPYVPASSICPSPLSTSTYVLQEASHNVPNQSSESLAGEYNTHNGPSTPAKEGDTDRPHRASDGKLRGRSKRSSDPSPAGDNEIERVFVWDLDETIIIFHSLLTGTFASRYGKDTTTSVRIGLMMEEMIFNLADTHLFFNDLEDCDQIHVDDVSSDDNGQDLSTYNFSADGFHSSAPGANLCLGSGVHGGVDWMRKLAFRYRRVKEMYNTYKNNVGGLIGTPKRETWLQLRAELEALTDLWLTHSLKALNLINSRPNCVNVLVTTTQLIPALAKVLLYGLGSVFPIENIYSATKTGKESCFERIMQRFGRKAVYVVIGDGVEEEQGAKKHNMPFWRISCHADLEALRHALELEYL

Danio rerio [7] = organism: Danio rerio; assay: Induction of vasculature defects in 5.25 hpf stage FLK1-GFP transgenic Zebrafish embryos assessed as reduction in intersegmental vessel number and extension measured at 24 hpf stage by fluorescence microscopy; format: functional, organism-based
Danio rerio [8] = organism: Danio rerio; assay: Induction of vasculature defects in 5.25 hpf stage FLK1-GFP transgenic Zebrafish embryos assessed as reduction of intersegmental vessels at 0.25 uM measured at 24 hpf stage by fluorescence microscopy; format: functional, organism-based
[9] = molecular target: T2, Protein phosphatase EYA3 (Homo sapiens) (UniProt Q99504); conditions: 5 to 10 uM
T2 sequence (whole entry): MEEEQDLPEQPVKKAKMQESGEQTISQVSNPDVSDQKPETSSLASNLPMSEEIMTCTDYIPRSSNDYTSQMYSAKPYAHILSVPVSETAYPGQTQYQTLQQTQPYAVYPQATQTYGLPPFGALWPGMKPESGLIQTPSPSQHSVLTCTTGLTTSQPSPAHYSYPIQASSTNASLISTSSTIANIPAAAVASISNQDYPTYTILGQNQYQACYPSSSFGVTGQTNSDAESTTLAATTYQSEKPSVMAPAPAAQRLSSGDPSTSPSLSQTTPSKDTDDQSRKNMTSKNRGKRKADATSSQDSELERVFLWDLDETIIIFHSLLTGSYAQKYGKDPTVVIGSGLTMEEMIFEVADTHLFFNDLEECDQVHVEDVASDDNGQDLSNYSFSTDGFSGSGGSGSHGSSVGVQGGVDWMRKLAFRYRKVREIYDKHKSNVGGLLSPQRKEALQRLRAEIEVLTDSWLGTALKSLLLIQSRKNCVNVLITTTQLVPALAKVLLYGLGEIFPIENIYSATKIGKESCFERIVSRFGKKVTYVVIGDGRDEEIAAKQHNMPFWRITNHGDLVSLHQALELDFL
Description: Inhibition of poly-histidine and GST-tagged full length human Eya3 isoform 2 (127 to 573 residues) assessed as reduction in Km at 5 to 10 uM using para-nitrophenol phosphate substrate incubated for 30 mins

[10] = molecular target: T2, Protein phosphatase EYA3 (Homo sapiens); conditions: 5 to 10 uM; remark: listed apart in the source
Description: Inhibition of poly-histidine and GST-tagged full length human Eya3 isoform 2 (127 to 573 residues) assessed as reduction in Vmax at 5 to 10 uM using para-nitrophenol phosphate substrate incubated for 30 mins

[11] = molecular target: T2, Protein phosphatase EYA3 (Homo sapiens); conditions: 3 to 10 uM
Description: Competitive inhibition of poly-histidine and GST-tagged full length human Eya3 isoform 2 (127 to 573 residues) at 3 to 10 uM using para-nitrophenol phosphate substrate incubated for 30 mins

Row | SMILES | inhibition (Aorta [1]) | inhibition (Aorta [2]) | inhibition (Aorta [3]) | Activity (Danio rerio [4]) | Activity (Danio rerio [5]) | inhibition [6] | Activity (Danio rerio [7]) | Activity (Danio rerio [8]) | other results
1 | CC(O)c1oc2ccccc2c1C(=O)c1cc(Br)c(O)c(Br)c1 (configuration not stated) | Dose-dependent effect | Dose-dependent effect | Dose-dependent effect |  |  |  |  |  | 
2 | Cc1oc2ccccc2c1C(=O)c1cc(I)c(O)c(I)c1 | Dose-dependent effect | Dose-dependent effect | Dose-dependent effect |  |  |  |  |  | 
3 | CCc1oc2ccccc2c1C(=O)c1ccc(O)cc1 |  |  |  | inactive | inactive | Active | Dose-dependent effect | inactive | inhibition (HUVEC): inactive
4 | CCCCc1oc2ccccc2c1C(=O)c1ccc(O)cc1 |  |  |  | inactive | inactive | Active | Dose-dependent effect | inactive | 
5 | Cc1oc2ccccc2c1C(=O)c1ccc(O)c(I)c1 | Dose-dependent effect | Dose-dependent effect | Dose-dependent effect |  |  |  |  |  | 
6 | CCc1oc2ccccc2c1C(=O)c1cc(Br)c(O)c(Br)c1 |  |  |  | inactive | inactive | Active | Dose-dependent effect | Active | inhibition (HUVEC): inactive; inhibition [9]: Active; inhibition [10]: Active; inhibition [11]: inactive
7 | CCc1oc2ccc(O)cc2c1C(=O)c1cc(Br)c(O)c(Br)c1 | Dose-dependent effect | Dose-dependent effect | Dose-dependent effect |  |  |  |  |  | 
8 | CC(O)CCc1oc2ccccc2c1C(=O)c1cc(I)c(O)c(I)c1 (configuration not stated) | inactive | inactive | inactive |  |  |  |  |  | 
9 | CCCCc1oc2ccccc2c1C(=O)c1cc(I)c(O)c(I)c1 | Dose-dependent effect | Dose-dependent effect | Dose-dependent effect |  |  |  |  |  | 
10 | CCc1oc2cc(O)ccc2c1C(=O)c1cc(Br)c(O)c(Br)c1 | Dose-dependent effect | Dose-dependent effect | Dose-dependent effect |  |  |  |  |  | inhibition (INH) (HUVEC): >50%
